We go through ten molecules from patent US20200224136A1, “INTESTINE-CHIP: DIFFERENTIAL GENE EXPRESSION MODEL” (priority 2019, published 2020).

Like-named read-outs stand apart in the source and are kept apart here.

In one series the target is T1, mouse CAR (mCAR) (Mus musculus, UniProt O35627).
T1 sequence (O35627 1-358): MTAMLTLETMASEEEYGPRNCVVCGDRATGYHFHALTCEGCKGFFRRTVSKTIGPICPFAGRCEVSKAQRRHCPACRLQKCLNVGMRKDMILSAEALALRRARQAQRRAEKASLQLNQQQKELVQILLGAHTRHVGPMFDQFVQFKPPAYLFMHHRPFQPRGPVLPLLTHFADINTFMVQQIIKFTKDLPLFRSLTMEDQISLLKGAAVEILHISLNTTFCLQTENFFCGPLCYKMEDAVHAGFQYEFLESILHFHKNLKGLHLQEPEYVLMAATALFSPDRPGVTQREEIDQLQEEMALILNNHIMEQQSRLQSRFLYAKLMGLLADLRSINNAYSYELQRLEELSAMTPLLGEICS
To be noted: cited from earlier work.

Series [1] has as its system CYP3A4.
In series [2] the test system is CYP3A4. This is another data set of the same source.
Series [3] concerns Mixed primary murine intestinal cultures. The settings on record: 3 uM, 2 hours, GLP-1 active ELISA kit, Millipore, cited from earlier work.
The target of another series is T2, human CAR (hCAR) (Homo sapiens, UniProt Q14994).
T2 sequence (Q14994 1-352): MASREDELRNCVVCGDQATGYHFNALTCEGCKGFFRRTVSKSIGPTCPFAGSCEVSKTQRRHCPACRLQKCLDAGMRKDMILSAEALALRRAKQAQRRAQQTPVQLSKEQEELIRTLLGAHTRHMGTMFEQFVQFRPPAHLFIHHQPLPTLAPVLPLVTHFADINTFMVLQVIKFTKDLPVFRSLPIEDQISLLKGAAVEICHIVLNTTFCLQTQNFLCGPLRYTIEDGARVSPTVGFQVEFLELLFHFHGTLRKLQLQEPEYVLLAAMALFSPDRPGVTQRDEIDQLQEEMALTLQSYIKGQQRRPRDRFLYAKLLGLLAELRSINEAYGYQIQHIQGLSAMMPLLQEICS
To be noted: cited from earlier work.

Another series concerns Colon Intestine-Chip. In words: Barrier disruption/rescue assay in organoid-derived Colon Intestine-Chip (apparent permeability, 3 kDa dextran). The series is classed as cell-based, human. As for the experimental part:
As one example, to evaluate the integrity of the intestinal barrier 3 kDa Cascade Blue dextran (Sigma, D7132) was added to the epithelial compartment of the Duodenum-Chip at 0.1 mg/ml on the day of connecting a microfluidic device to flow, e.g., see exemplary timelines. Effluents of the endothelial compartment were sampled 3 hours after the addition of a dye, up to 24 hours, up to 48 hours, up to 72 hours, or at 48 hour intervals until the end of the assay, in order to determine the concentration of dye that has diffused through the membrane.
The apparent paracellular permeability (Papp) was calculated based on a standard curve and using the following formula: […]
In some embodiments, a microfluidic device as described herein, is used for an in vitro assay for evaluating a substance for its ability or efficacy of ‘rescuing’ barrier function. In some embodiments, a human intestine chip is used for an in vitro assay for evaluating a substance for ‘rescuing’ barrier function. In some embodiments, a human intestine chip is an organoids-derived colonic intestine chip. In some embodiments, Organoids-derived Colonic Epithelial Cells are seeded into one channel with Intestinal Microvascular Endothelial Cells seeded into an opposing channel separated by a membrane, as described herein. After seeding cells on Day 0, flow was initiated on Day 1 with stretch initiated on Day 2.
The following is an exemplary timeline for one embodiment of a Barrier Disruption/Rescue Assay, e.g. rescuing 3 hours of injury by a peptide substance, e.g. AT1002 (synthetic peptide H-FCIGRL-OH of ZO toxin) with AT1001, larzaride acetate. Day −5: experiment preparation (prep), as described herein; Day 0: Intestine chip seeding both cells types, epithelial and endothelial; Day 1 starting flow; Day 2 starting stretch, in some embodiments starting […] at lower levels then increasing up to 10% over 24 hours (1 day), over 2 days, or over 3 days; Day 5; starting Injury/Rescue Assay: using a known reversible injury inducing substance: Injure period starting at 0 hour continuing up to 3 hours, or more. Day 6 first readout time point (24 hours); Day 7, in some embodiments, Fix cells at 48 hours post injury; Days 7-21, in some embodiments, initiate at least one Endpoint Assay for analysis; and in some embodiments Day 21 is a report-out of assay. Exemplary check timepoints for readouts: 0, 24 and 48 hours after initiation of injury inducing substance. In some embodiments, Endpoint Assays and Analysis are done on Day 14. In some embodiments, Endpoint Assays and Analysis are done on Day 21. In some embodiments, a test substance for ‘rescuing’ damage may be evaluated within 14 days. In some embodiments, a test substance for ‘rescuing’ damage may be evaluated within 21 days from the beginning of cell culturing. […]

The next series has as its target T3, mouse PXR (mPXR) (Mus musculus, UniProt O54915).
T3 sequence (O54915 1-431): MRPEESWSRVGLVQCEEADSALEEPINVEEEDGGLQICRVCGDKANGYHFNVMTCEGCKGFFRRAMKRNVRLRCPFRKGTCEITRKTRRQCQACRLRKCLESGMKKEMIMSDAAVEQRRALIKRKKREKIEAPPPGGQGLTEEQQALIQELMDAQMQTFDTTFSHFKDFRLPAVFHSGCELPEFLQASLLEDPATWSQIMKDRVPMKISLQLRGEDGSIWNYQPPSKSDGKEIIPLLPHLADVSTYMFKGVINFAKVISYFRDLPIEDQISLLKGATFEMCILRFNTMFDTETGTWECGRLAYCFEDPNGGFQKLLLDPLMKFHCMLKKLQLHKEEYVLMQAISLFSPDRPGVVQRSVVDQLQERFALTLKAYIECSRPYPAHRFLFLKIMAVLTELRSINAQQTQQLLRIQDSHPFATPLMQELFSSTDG
To be noted: cited from earlier work.

Another series concerns the target T4, human PXR (hPXR) (Homo sapiens, UniProt O75469).
T4 sequence (O75469 1-434): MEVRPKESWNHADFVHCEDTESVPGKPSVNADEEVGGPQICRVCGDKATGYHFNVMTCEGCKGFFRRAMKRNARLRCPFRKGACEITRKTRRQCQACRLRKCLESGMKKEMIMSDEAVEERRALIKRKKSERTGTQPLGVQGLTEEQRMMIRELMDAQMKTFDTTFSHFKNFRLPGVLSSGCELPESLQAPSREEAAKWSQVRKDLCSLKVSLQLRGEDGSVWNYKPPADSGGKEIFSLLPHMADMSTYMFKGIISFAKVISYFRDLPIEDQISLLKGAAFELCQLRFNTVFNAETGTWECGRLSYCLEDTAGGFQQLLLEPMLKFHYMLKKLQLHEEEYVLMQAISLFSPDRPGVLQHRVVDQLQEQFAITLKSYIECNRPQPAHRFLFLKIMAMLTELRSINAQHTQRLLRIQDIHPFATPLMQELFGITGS
The settings on record: cited from earlier work.

For the next series, the system named is Colon-Chip. As to the kind of experiment: IL-13 mediated enrichment of tuft cells in Colon-Chip. The series is classed as cell-based, human. The settings on record: 10 ng/ml. As for the experimental part:
Stimulation: Exposure of Colon-Chips and ileal and colonic organoids (serve as a control) to 10 ng/ml of IL-13.
Read-outs: mRNA expression of genes specific for Tuft cells: Trpm5, ChAT, Dclkl and for goblet cells: Muc2, TFF3, etc., (to assess concomitant expansion of goblet cell populations) at day 2, 3 and 6 post-treatment corresponding to day 4, 5 and 8 of Colon-Chip culture.
IL-13 treatment has no negative impact of Colon-Chip tissue morphology and barrier function.
Summary of IL-13 mediated enrichment of the tuft cells in Colon-Chip. […] We performed stimulation of Colon-Chips with IL-13 in order to drive tuft cell differentiation and enrich for the presence of these cells in Intestine-Chip platform. […] In some embodiments, Gene expression levels of Tuft cell (Trpm5, ChAT) and goblet cell (Muc2, TFF3) specific markers are evaluated.

The test system of the next series is Caco-2 cell monolayers. To be noted: cited from earlier work.

On to `Clc1cnc(Oc2ccc(Oc3ncc(Cl)cc3Cl)cc2)c(Cl)c1` [TCPOBOP, 1,4-bis-[2-(3,5-dichloropyridyloxy)]benzene,3,3′.5.5′-tetrachloro-1,4-bis(pyridyloxy)benzene], for which, at mouse CAR (mCAR), the “selectivity mCAR versus hCAR” value is given as “more selective for mCAR than hCAR”.

For `C=C1/C(=C\C=C2/CCC[C@]3(C)[C@@H]([C@H](C)CCCC(C)(C)O)CC[C@@H]23)C[C@@H](O)C[C@@H]1O` [VD3, 1,25-dihidroxyvitamin D3], in the series on CYP3A4 [1] (Duodenum Intestine-Chip), the “CYP3A4 drug metabolism activity” value was “significantly increased” and the CYP3A4 protein levels entry is given as “significantly increased”. Further, the “induction of CYP3A4 expression relative to DMSO-treated controls” value in the series on CYP3A4 [1] (Duodenum-Chip, average of 3 donors, 20 μM RIF or 100 nM VD3, 48 h) was determined as 4.1 fold. Also, in the series on CYP3A4 [2] (Caco-2 Intestine-Chip), the “CYP3A4 induction (in words)” value was “induced” and the “metabolic activity of CYP3A4” value was “no effect”. Further, the “CYP3A4 induction (in words)” value with CYP3A4 [2] (Caco-2 Intestine-Chip, listed as Vitamin D3) is “showed induction”. Also, in the series on CYP3A4 [2] (Caco-2 cells after inducer treatment), the “CYP3A4 protein level (Western Blot)” value is listed as “below the limit of detection”. For the same molecule, the “enhancement of CYP3A4 mRNA level” value in the series with CYP3A4 [2] (Caco-2 cells, 100 nM, 48 h) was 316 fold.

`Cc1onc(-c2ccccc2Cl)c1C(=O)N(C)c1ccc(Cl)cc1` [GPBAR-A]: the “GLP-1 Concentration (fold increase) in the presence of 10 mM glucose” value in series [3] (in the presence of 10 mM glucose) was 3.5 fold increase. Further, the “GLP-1 Concentration (fold increase)” value in series [3] is given as 2.5 fold increase.

In the case of `Clc1ccc(-c2nc3sccn3c2C=NOCc2ccc(Cl)c(Cl)c2)cc1` [CITCO, 6-(4-chlorophenyl)imidazo[2,1-b][1,3]thiazole-5-carbaldehyde-O-(3,4-dichlorobenzyl)oxime], the “agonism at mouse CAR” value on mouse CAR (mCAR) is “not mouse CAR”. Also, the “agonism at human CAR” value on human CAR (hCAR) was “strong agonist”.

As for IFN-gamma: injury inducing cytokine, in the series on Colon Intestine-Chip (10 ng/ml - 50 ng/ml, 48 hours, 3 KDa Dextran Cascade Blue), the “permeability of Colon Intestine Chip” value is given as “increases post 48 hours independent of IFN-gamma concentrations tested”.

For the molecule `CCOP(=O)(OCC)C(=Cc1cc(C(C)(C)C)c(O)c(C(C)(C)C)c1)P(=O)(OCC)OCC` [SR12813], the “agonism at mouse PXR” value on mouse PXR (mPXR) is listed as “not for mouse PXR”.

As to `CC(=O)[C@H]1[C@H](C#N)C[C@H]2[C@@H]3CC=C4C[C@@H](O)CC[C@]4(C)[C@H]3CC[C@@]21C` [PCN, 5-pregnen-3β-ol-20-one-16α-carbonitrile], at human PXR (hPXR), the “agonism at human PXR” value was “poor agonist”. Also, the “agonism at mouse PXR” value on mouse PXR (mPXR) was “potent mPXR agonist”.

“IL-13: cytokine used to drive tuft cell differentiation”: in the series with Colon-Chip, the “effect on Colon-Chip morphology and barrier function” value was “no negative effect”; the tuft cell population result was “Enrichment”.

As for H-FCIGRL-OH [AT1002], the “injury effect on barrier (apparent permeability, 3 KDa Dextran Cascade Blue)” value in the series with Colon Intestine-Chip (organoid-derived colon chip) is listed as “barrier disruption in a concentration-dependent manner”. In the series with Caco-2 cell monolayers (Caco-2 cell monolayers), the lucifer yellow permeability entry is reported as “increase” and the “transepithelial electrical resistance (TEER)” value was “reversible reduction”. In the series with Caco-2 cell monolayers, the cytotoxicity result is “no overt cytotoxicity”.

As for Larazotide acetate, the “restoration of barrier integrity/function injured by IFN-gamma” value with Colon Intestine-Chip (12.5 mM, IFN-gamma 25 ng/ml, 3 KDa Dextran Texas Red, N=5) is given as “partially restored/rescued”. For the same molecule, the “restore/rescue of barrier integrity” value with Colon Intestine-Chip (Colon Intestine-Chip exposed to AT1002, 20 mM, after 24 hours, N=5) is on record as “up to 100%”. Also, the “increase in TJ permeability elicited by basolaterally applied cytokines” value with Caco-2 cell monolayers (apically applied) is reported as “inhibited”.
